Data on 5 molecules can be found in patent US11628216B2 (priority 2013, dated 2023).

Like-named read-outs stand apart in the source and are kept apart here.

The conditions of series [1]: after last heroin use; cited from earlier work.
The subject of series [2] is antibodies of Example 3 (antibody of the invention against 6-acetylmorphine). In kind it is binding. The settings on record: 6-AM Conc. 10 ng/mL. Here is the method:
Cross reactivity to heroin metabolites and other common structurally related opiates may be evaluated using the antibodies described herein. Immunoassays are constructed using the antibodies of Example 3, configured to operate in a competitive mode immunoassay format, in which the analogue compounds of the invention are compared with other related compounds for cross reaction against 6-acetylmorphine. […] Aliquots of labeled 6-acetylmorphine at 10 ng/mL are incubated in the presence of competing compound with the antibody of the invention, and the level of interaction of the competitor compound determined as a reduction in measured signal compared with the situation where only 6-acetylmorphine is present.
Cross reactivity to heroin metabolites and other common structurally related opiates were evaluated using the antibodies as described with reference to Example 3. […] Aliquots of labeled 6-acetylmorphine at 10 ng/mL were incubated in the presence of competing compound with the antibody of the invention, and the level of interaction of the competitor compound determined as a reduction in measured signal compared with the situation where only 6-acetylmorphine was present.

Series [3] deals with selected monoclonal antibody against 6-AM. Kind of series: competitive assay for 6-AM developed with a selected antibody. In kind it is binding. The settings on record: at clinically relevant concentrations. Here is the method: The bacterial cells from each antibody library are streaked on agar to generate colonies. The colonies, coding for monoclonal antibodies, are used to inoculate culture medium in individual wells in 96-well plates. The liquid cultures are grown overnight and used to generate frozen cell stocks. The frozen cell stocks are used to generate duplicate 96-well plate cultures, followed by expression and purification of the monoclonal antibodies in soluble form in microgram quantities.
The bacterial cells from each antibody library were streaked on agar to generate colonies. The colonies, coding for monoclonal antibodies, were used to inoculate culture medium in individual wells in 96-well plates. The liquid cultures were grown overnight and used to generate frozen cell stocks. The frozen cell stocks were used to generate duplicate 96-well plate cultures, followed by expression and purification of the monoclonal antibodies in soluble form in microgram quantities.

Regarding `CC(=O)O[C@H]1C=CC2[C@H]3Cc4ccc(O)c5c4[C@@]2(CCN3C)[C@H]1O5` (stereo partly drawn) [6-Acetylmorphine], the “time 6-AM remains in the urine” value in series [1] is “no more than 24 hours”. In series [2] (Analyte Conc. 10 ng/mL), the “Cross-Reactivity (%)” value was found to be 100%.

With `CC(=O)Oc1ccc2c3c1O[C@H]1[C@@H](OC(C)=O)C=C[C@H]4[C@@H](C2)N(C)CC[C@@]341` [Heroin, Diacetylmorphine], the “Cross-Reactivity (%)” value in series [2] (Analyte Conc. 750 ng/mL) amounted to 1.3%. On to `CN1CC[C@]23c4c5ccc(O[C@@H]6O[C@H](C(=O)O)[C@@H](O)[C@H](O)[C@H]6O)c4O[C@H]2[C@@H](O)C=C[C@H]3[C@H]1C5` [Morphine 3-D-glucuronide], for which the crossreactivity entry in series [3] was “no crossreactivity”. On the same count and under the same terms, as for `CN1CC[C@]23c4c5ccc(O)c4O[C@H]2[C@@H](O[C@@H]2O[C@H](C(=O)O)[C@@H](O)[C@H](O)[C@H]2O)C=C[C@H]3[C@H]1C5` [Morphine 6-D-glucuronide], the entry is “no crossreactivity”; as for `CN1CC[C@]23c4c5ccc(O)c4O[C@H]2[C@@H](O)C=C[C@H]3[C@H]1C5` [Morphine], “no crossreactivity”.
